One assay has as its target MGLL (UniProt Q99685). Description: pIC50, competition of probe 3 labelling in live cells. The note with it: cell material: Jurkat cells.
In another assay the target is UniProt Q9Y2H1. Description: pIC50, kinobeads binding competition. The method in brief:
(§1)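 Fold changes relative to vehicle, from biological duplicates, were fitted with logistic dose-response models in the R drc package to give pIC50. These fold changes came from TMT10 LC-MS/MS quantification of digested Kinobeads-bound proteins. Compound was applied at nine concentrations (top 30 μM) either to live Jurkat cells in 1:4 steps for 60 min at 37 °C before lysis, or to Jurkat lysate or a 1:1:1:1 HEK293/K-562/HepG2/placenta lysate mix in 1:5 steps for 60 min at 4 °C.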

A further assay deals with T1, CASK (UniProt O14936).
T1 sequence (whole entry): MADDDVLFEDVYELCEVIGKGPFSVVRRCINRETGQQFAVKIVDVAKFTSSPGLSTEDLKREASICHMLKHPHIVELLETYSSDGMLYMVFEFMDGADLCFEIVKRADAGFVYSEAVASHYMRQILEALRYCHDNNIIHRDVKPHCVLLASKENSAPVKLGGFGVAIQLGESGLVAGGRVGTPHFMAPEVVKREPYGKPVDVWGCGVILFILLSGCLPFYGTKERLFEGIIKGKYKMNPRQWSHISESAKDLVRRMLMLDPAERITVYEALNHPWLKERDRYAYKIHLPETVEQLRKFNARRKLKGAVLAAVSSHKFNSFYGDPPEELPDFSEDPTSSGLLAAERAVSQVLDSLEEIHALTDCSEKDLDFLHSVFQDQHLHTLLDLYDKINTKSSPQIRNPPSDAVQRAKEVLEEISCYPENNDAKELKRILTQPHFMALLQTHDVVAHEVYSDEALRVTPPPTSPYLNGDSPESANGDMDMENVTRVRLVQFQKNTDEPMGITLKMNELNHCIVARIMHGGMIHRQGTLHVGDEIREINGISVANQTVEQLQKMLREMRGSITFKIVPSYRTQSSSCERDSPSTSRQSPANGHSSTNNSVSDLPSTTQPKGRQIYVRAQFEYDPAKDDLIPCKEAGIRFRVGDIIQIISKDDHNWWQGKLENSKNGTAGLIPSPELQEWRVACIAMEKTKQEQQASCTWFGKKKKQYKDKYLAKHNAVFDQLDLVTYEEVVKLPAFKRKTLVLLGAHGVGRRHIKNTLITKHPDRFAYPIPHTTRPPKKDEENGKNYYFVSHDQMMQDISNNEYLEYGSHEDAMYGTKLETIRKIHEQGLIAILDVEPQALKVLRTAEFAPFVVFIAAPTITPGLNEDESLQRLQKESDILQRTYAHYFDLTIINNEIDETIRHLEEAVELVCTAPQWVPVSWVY
The assay can be described thus: pIC50, kinobeads binding competition. The note with it: cell material: Lysate mix. A digest of the protocol: as §1

The next assay concerns the target PRPF4B (UniProt Q13523). The assay can be described thus: pIC50, kinobeads binding competition. The note with it: cell material: Lysate mix. The method in brief: as §1
For a further assay, the target named is CSF1R (UniProt P07333). Description: pIC50, kinobeads binding competition. The note with it: cell material: Lysate mix. The method in brief:
as §1

For a further assay, the target named is PRKACB (UniProt P22694). Description: pIC50, kinobeads binding competition. A digest of the protocol: as §1
The next assay addresses SRPK1 (UniProt Q96SB4). The assay can be described thus: pIC50, kinobeads binding competition. The method in brief: as §1
In another assay the target is T2, UniProt Q14164.
T2 sequence (whole entry): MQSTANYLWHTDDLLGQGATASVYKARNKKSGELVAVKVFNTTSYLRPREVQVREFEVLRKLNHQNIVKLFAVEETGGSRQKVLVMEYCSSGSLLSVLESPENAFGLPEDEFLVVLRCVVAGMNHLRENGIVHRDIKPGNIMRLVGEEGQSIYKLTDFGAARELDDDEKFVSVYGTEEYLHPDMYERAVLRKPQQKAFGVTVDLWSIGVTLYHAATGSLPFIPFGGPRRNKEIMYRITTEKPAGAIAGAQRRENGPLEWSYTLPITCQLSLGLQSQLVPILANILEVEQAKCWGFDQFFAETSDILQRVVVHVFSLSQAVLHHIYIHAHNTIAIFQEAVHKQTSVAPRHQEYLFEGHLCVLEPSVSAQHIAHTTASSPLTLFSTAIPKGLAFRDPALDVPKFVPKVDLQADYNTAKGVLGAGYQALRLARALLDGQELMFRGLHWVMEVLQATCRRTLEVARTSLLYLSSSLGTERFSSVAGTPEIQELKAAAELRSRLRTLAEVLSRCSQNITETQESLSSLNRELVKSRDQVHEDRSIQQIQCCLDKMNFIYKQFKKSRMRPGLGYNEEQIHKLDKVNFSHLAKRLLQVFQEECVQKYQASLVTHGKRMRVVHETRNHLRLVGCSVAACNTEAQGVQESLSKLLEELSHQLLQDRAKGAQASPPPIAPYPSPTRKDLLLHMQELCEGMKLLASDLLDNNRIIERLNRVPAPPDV
The assay can be described thus: pIC50, kinobeads binding competition. A digest of the protocol: as §1

Another assay has as its target UniProt Q8NEB9. Description: pIC50, kinobeads binding competition. A digest of the protocol:
as §1

The next assay addresses RPS6KA6 (UniProt Q9UK32). The assay can be described thus: pIC50, kinobeads binding competition. Particulars: cell material: Lysate mix. The method in brief: as §1
The target in a further assay is FRK (UniProt P42685). The assay can be described thus: pIC50, kinobeads binding competition. The note with it: cell material: Lysate mix. A digest of the protocol:
as §1

Here are results for 8 compounds from the supplement of paper PMC12076712.

Chain of RPS6KA6 (Q9UK32 whole entry): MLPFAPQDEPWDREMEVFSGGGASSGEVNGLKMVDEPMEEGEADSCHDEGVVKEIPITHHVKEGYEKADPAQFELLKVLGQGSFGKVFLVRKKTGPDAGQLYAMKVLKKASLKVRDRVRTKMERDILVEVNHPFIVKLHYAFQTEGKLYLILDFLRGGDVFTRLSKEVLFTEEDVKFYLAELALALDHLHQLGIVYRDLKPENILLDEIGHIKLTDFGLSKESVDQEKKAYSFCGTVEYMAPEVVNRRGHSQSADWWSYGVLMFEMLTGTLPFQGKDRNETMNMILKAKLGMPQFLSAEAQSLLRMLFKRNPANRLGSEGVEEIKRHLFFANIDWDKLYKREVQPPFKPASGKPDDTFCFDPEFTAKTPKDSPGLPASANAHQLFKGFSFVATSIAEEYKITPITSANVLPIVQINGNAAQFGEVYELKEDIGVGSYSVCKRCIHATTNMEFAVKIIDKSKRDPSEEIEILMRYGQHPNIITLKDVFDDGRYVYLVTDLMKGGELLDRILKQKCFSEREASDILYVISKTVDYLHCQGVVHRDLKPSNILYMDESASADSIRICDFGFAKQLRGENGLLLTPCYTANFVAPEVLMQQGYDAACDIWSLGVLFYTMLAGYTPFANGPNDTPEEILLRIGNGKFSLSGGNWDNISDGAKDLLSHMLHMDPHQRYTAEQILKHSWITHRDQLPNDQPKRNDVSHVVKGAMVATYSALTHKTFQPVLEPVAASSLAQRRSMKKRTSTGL
Chain of CSF1R (P07333 whole entry): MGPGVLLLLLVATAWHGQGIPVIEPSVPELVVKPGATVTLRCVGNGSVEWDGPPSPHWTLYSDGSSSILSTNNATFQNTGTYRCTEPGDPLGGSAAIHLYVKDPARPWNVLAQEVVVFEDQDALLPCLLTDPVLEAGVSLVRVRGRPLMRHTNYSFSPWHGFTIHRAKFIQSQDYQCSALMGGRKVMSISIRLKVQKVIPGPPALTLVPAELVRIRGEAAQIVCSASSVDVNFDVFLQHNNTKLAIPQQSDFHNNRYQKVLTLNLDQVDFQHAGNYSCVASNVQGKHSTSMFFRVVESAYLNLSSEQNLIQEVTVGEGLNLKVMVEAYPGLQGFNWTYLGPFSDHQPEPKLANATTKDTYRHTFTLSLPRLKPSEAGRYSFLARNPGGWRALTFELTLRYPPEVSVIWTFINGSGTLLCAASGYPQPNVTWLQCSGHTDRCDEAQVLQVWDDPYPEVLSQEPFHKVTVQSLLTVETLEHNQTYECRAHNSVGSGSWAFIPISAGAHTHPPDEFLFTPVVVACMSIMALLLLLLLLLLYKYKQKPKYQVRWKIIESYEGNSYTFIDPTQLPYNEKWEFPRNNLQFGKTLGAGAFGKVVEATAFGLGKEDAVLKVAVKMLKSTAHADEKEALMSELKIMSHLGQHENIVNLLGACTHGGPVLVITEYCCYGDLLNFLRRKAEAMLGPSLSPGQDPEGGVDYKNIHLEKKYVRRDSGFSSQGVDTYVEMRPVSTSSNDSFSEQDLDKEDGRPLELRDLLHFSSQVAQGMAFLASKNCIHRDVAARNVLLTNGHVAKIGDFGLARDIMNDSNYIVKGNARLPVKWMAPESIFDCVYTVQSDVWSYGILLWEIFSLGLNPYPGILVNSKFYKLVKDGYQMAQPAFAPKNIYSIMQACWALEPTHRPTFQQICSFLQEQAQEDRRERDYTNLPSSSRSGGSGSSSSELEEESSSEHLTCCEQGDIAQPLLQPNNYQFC
Chain of UniProt Q8NEB9 (Q8NEB9 whole entry): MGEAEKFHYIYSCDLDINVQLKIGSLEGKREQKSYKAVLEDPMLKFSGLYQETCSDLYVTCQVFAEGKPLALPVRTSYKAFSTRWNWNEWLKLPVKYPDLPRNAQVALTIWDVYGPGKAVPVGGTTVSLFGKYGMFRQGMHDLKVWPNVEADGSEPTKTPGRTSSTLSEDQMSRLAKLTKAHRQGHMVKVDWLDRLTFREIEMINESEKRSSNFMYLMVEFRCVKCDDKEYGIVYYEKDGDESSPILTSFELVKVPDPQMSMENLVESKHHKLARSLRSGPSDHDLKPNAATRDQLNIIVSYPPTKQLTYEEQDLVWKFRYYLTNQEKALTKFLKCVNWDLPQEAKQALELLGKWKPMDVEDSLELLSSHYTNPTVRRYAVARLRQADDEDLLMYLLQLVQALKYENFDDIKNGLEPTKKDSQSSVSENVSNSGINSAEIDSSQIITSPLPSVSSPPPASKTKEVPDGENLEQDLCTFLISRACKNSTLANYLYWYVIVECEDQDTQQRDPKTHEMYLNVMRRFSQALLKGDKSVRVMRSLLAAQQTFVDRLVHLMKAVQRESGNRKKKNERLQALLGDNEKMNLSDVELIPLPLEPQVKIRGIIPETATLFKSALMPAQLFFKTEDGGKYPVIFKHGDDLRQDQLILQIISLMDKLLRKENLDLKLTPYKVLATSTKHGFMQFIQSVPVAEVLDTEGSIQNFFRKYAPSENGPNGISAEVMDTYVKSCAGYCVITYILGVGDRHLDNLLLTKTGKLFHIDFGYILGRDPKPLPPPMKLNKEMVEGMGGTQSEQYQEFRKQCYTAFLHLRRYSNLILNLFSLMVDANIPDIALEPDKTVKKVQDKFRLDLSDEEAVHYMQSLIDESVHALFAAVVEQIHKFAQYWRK
Chain of PRPF4B (Q13523 whole entry, looked up): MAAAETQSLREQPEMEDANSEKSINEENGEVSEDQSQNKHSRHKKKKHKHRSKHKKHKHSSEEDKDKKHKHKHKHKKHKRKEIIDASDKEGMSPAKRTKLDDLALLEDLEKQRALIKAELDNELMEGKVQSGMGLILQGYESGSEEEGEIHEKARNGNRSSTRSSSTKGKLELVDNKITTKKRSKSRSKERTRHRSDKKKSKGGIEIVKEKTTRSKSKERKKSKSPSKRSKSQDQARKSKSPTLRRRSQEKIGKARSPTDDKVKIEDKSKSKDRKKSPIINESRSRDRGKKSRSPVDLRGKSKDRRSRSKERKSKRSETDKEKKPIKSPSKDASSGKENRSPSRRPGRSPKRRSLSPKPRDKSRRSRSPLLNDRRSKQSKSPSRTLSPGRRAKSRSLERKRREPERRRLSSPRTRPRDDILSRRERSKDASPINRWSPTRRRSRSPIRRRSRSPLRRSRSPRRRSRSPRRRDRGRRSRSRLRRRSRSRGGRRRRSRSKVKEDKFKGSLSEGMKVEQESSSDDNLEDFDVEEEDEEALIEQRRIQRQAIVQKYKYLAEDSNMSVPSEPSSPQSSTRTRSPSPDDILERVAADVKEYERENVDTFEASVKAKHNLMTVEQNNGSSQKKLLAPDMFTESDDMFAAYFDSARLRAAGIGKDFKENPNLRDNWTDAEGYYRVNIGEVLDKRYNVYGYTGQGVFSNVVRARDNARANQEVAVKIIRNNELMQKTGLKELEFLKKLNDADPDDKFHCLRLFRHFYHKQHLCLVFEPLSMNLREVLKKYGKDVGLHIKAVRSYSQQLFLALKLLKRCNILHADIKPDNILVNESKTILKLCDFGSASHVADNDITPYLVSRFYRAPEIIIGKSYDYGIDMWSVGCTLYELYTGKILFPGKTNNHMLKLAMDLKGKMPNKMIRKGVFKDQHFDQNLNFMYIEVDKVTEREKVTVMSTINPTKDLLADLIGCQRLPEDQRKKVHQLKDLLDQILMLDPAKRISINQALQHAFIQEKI
Chain of SRPK1 (Q96SB4 whole entry): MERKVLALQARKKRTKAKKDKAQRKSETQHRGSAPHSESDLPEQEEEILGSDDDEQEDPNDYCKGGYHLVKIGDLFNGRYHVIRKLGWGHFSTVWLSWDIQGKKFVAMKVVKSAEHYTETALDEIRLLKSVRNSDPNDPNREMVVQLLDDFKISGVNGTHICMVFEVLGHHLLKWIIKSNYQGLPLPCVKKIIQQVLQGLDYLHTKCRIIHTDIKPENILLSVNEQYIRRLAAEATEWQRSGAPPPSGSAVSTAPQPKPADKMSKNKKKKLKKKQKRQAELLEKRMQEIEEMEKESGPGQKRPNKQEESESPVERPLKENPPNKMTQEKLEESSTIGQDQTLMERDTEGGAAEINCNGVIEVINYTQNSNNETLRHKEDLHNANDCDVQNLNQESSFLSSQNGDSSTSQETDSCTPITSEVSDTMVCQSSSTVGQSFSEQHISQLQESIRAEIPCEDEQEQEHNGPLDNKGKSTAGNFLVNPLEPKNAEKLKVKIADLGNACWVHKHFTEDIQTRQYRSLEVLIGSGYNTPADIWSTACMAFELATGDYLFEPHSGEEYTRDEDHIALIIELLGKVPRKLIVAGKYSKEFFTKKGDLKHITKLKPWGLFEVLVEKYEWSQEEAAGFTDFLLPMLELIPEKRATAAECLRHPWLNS
Chain of UniProt Q9Y2H1 (Q9Y2H1 whole entry, looked up): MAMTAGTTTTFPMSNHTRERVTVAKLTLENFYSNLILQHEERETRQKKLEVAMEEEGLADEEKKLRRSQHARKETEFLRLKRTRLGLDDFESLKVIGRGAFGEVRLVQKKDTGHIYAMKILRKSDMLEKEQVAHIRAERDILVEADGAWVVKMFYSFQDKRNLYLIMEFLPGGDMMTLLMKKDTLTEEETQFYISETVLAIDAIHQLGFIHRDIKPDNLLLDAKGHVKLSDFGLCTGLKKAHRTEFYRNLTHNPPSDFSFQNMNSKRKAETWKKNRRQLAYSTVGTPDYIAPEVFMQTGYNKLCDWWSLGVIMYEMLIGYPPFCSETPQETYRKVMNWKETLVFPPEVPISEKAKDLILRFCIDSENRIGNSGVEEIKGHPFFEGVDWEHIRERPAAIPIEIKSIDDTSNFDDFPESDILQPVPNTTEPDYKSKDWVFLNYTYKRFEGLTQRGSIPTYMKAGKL
Chain of MGLL (Q99685 whole entry): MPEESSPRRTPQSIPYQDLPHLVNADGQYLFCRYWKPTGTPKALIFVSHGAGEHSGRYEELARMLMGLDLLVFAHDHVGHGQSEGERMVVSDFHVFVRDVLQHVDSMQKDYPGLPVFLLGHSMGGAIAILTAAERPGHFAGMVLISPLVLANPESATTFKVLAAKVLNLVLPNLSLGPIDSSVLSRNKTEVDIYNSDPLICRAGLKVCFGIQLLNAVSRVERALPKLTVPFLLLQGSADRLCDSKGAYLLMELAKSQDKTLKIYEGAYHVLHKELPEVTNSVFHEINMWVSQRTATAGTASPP

Consider `CCc1cnn2c(NCc3ccc[n+]([O-])c3)cc(N3CCCC[C@H]3CCO)nc12` [dinaciclib], for which the negative-log IC50 (pIC50) (commonly −log10 of the IC50, conventionally taken in molar units) at MGLL was less than 4.52.

Take `O=C(NCCNC(=O)c1cc(Nc2cc(C3CC3)[nH]n2)nc(N2CCN(Cc3ccc(S(=O)(=O)F)cc3)CC2)n1)OC1CC/C=C/CCC1` (configuration not stated): the pIC50 was 5.79 at UniProt Q9Y2H1 (cell material: Jurkat cells); less than 4.52 on UniProt Q9Y2H1 (cell material: Lysate mix); less than 4.52 on CASK; less than 4.52 at PRPF4B; less than 4.52 at CSF1R; less than 4.52 on PRKACB (cell material: Jurkat cells). Also, the pIC50 is less than 4.52 on PRKACB (cell material: Jurkat lysate); less than 4.52 on SRPK1 (cell material: Jurkat cells); 5.28 at UniProt Q14164 (cell material: Jurkat cells); less than 4.52 on UniProt Q14164 (cell material: Jurkat lysate); less than 4.52 on UniProt Q14164 (cell material: Lysate mix); less than 4.52 on UniProt Q8NEB9 (cell material: Jurkat cells). On RPS6KA6, this compound returned a pIC50 of less than 4.52.

With `Cc1cc(Nc2cc(C(=O)NCCNC(=O)OC3CC/C=C/CCC3)nc(N3CCN(Cc4ccc(S(=O)(=O)F)cc4)CC3)n2)n[nH]1` (configuration not stated), the negative-log IC50 (pIC50) at UniProt Q9Y2H1 (cell material: Lysate mix), at FRK, on PRPF4B, at CSF1R, at PRKACB (cell material: Lysate mix) and on SRPK1 (cell material: Lysate mix) was less than 4.52 in each case. Further, the negative logarithm of the IC50 (pIC50) at UniProt Q14164 (cell material: Lysate mix) and at RPS6KA6 was less than 4.52 in each case.

Take `CCNC(=O)c1cc(Nc2cc(C)[nH]n2)nc(N2CCN(Cc3ccc(S(=O)(=O)F)cc3)CC2)n1`: the pIC50 on UniProt Q9Y2H1 (cell material: Lysate mix) is less than 4.52; on FRK, 6.23; at CASK, less than 4.52; at CSF1R, less than 4.52; on PRKACB (cell material: Lysate mix), less than 4.52.

Regarding `CC#CC(=O)Nc1ccc2ncnc(Nc3cccc(Br)c3)c2c1` [EKI-785], the pIC50 at MGLL was less than 4.52.

As for `C#CCNC(=O)c1cc(Nc2cc(C3CC3)[nH]n2)nc(N2CCN(Cc3ccc(S(=O)(=O)F)cc3)CC2)n1`, the pIC50 was 6.28 on UniProt Q9Y2H1 (cell material: Jurkat cells); 5.56 at UniProt Q9Y2H1 (cell material: Jurkat lysate); 6.27 at FRK; less than 4.52 on PRPF4B; less than 4.52 at CSF1R; less than 4.52 at PRKACB (cell material: Jurkat lysate). Further, the negative-log IC50 (pIC50) at SRPK1 (cell material: Jurkat cells) was less than 4.52; at UniProt Q14164 (cell material: Jurkat cells), 6; at UniProt Q14164 (cell material: Jurkat lysate) it was 4.89; at UniProt Q14164 (cell material: Lysate mix), 5.25; at UniProt Q8NEB9 (cell material: Jurkat cells), 4.87; on RPS6KA6, 4.94.

Regarding `C#CCNC(=O)c1cc(Nc2cc(C)[nH]n2)nc(N2CCN(Cc3ccc(S(=O)(=O)F)cc3)CC2)n1`, the pIC50 on UniProt Q9Y2H1 (cell material: Lysate mix) is 4.77; on FRK, 5.78; on CASK, less than 4.52; at UniProt Q14164 (cell material: Lysate mix), less than 4.52; at RPS6KA6 it was less than 4.52.

In the case of `CCNC(=O)c1cc(Nc2cc(C3CC3)[nH]n2)nc(N2CCN(Cc3ccc(S(=O)(=O)F)cc3)CC2)n1`, the pIC50 at FRK was 5.98; at CASK it was less than 4.52; on PRPF4B it was 5.12; on CSF1R it was less than 4.52; at UniProt Q14164 (cell material: Lysate mix), 5.08; on UniProt Q8NEB9 (cell material: Lysate mix), less than 4.52. The compound also yielded a negative-log IC50 (pIC50) on RPS6KA6 of 4.87.
